Patent US10689327B2, “Prodrug amino acid derivative” (TAISHO PHARMACEUTICALS CO., LTD., priority 2016, dated 2020)
Counter-ions that a name gives are not always drawn.

Test: Stability test in solution (pH 1.2 and pH 6.5)
Assay type: physicochemical
Details: 1 hour; for Compound's percent residue (%) pH 6.5: 20 mM phosphate buffer pH 6.5, 37° C.; for Compound's percent residue (%) pH 1.2: hydrochloric acid solution pH 1.2, 37° C.
Procedure: Test 2: Stability Test in Solution
A test to determine the stability of Inventive Compounds (I-A) or (I) in a hydrochloric acid solution (pH 1.2) and 20 mM phosphate buffer (pH 6.5) was conducted in accordance with the following method.
A compound was dissolved in a hydrochloric acid solution (pH 1.2) containing hydrochloric acid and sodium chloride or a 20 mM phosphate buffer (pH 6.5) containing disodium hydrogenphosphate, sodium dihydrogenphosphate and sodium chloride to prepare a solution with a concentration of about 50 ng/mL (near the saturated concentration when the compound was not dissolved). The solution was incubated at 37° C. for 1 hour and the compound's concentration before and after the incubation was quantified by high-performance liquid chromatography to calculate the percent residue of the compound. Compounds having low solubility were assessed as being not applicable.
The percent residues of representative compounds in the hydrochloric acid solution (pH 1.2) and the 20 mM phosphate buffer (pH 6.5) are shown in the following Table 2.

Compound's percent residue (%) pH 6.5	Compound's percent residue (%) pH 1.2	SMILES
103%	100%	CCCO[C@@H]1C[C@@H]2[C@H]([C@]1(N)C(=O)OC(C)OC(=O)O[C@H]1C[C@@H](C)CC[C@@H]1C(C)C)[C@@]2(F)C(=O)O (single isomer, unassigned) [Example 15-B]
97%	104%	CC(OC(=O)O[C@@H]1C[C@@H]2CC[C@@]1(C)C2(C)C)OC(=O)[C@@]1(N)[C@H]2[C@@H](C[C@H]1OCc1ccc(F)cc1)[C@]2(F)C(=O)O (single isomer, unassigned) [Example 17-A]
103%	107%	CCCO[C@@H]1C[C@@H]2[C@H]([C@]1(N)C(=O)OC(C)OC(=O)O[C@@H]1C[C@@H]3CC[C@@]1(C)C3(C)C)[C@@]2(F)C(=O)O (single isomer, unassigned) [Example 18-A]
106%	100%	CC(OC(=O)O[C@H]1C[C@H]2CC[C@]1(C)C2(C)C)OC(=O)[C@@]1(N)[C@H]2[C@@H](C[C@H]1OCc1ccc(F)cc1)[C@]2(F)C(=O)O (single isomer, unassigned) [Example 19-B]
103%	109%	CC(C)[C@@H]1CC[C@@H](C)C[C@H]1OC(=O)O[C@H](C)OC(=O)[C@@]1(N)[C@H]2[C@@H](C[C@H]1OCc1ccc(F)cc1)[C@]2(F)C(=O)O [Example 1, (1R,2R,3R,5R,6R)-2-amino-6-fluoro-3-[(4-fluorophenyl)methoxy]-2-({(1R)-1-[({[(1R,2S,5R)-5-methyl-2-(propan-2-yl)cyclohexyl]oxy}carbonyl)oxy]ethoxy}carbonyl)bicyclo[3.1.0]hexane-6-carboxylic acid]
104%		CC(C)[C@@H]1CC[C@@H](C)C[C@H]1OC(=O)O[C@@H](C)OC(=O)[C@@]1(N)[C@H]2[C@@H](C[C@H]1OCc1ccc(F)cc1)[C@]2(F)C(=O)O [Example 2, (1R,2R,3R,5R,6R)-2-Amino-6-fluoro-3-[(4-fluorophenyl)methoxy]-2-({(1S)-1-[({[(1R,2S,5R)-5-methyl-2-(propan-2-yl)cyclohexyl]oxy}carbonyl)oxy]ethoxy}carbonyl)bicyclo[3.1.0]hexane-6-carboxylic acid]
	93%	C[C@H](OC(=O)C12CC3CC(CC(C3)C1)C2)OC(=O)[C@@]1(N)[C@H]2[C@@H](C[C@H]1OCc1ccc(F)cc1)[C@]2(F)C(=O)O [Example 3, (1R,2R,3R,5R,6R)-2-Amino-6-fluoro-3-[(4-fluorophenyl)methoxy]-2-({(1R)-1-[(tricyclo[3.3.1.1^3,7]decane-1-carbonyl)oxy]ethoxy}carbonyl)bicyclo[3.1.0]hexane-6-carboxylic acid]
98%	98%	C[C@@H](OC(=O)C12CC3CC(CC(C3)C1)C2)OC(=O)[C@@]1(N)[C@H]2[C@@H](C[C@H]1OCc1ccc(F)cc1)[C@]2(F)C(=O)O [Example 4, (1R,2R,3R,5R,6R)-2-Amino-6-fluoro-3-[(4-fluorophenyl)methoxy]-2-({(1S)-1-[(tricyclo[3.3.1.1^3,7]decane-1-carbonyl)oxy]ethoxy}carbonyl)bicyclo[3.1.0]hexane-6-carboxylic acid]
98%	100%	CC(OC(=O)OC1CCCCC1)OC(=O)[C@@]1(N)[C@H]2[C@@H](C[C@H]1OCc1ccc(F)cc1)[C@]2(F)C(=O)O (stereo partly drawn) [Example 5, (1R,2R,3R,5R,6R)-2-Amino-2-[(1-{[(cyclohexyloxy)carbonyl]oxy}ethoxy)carbonyl]-6-fluoro-3-[(4-fluorophenyl)methoxy]bicyclo[3.1.0]hexane-6-carboxylic acid]
11%	99%	CC(C)[C@H](N)C(=O)OCOC(=O)[C@@]1(N)[C@H]2[C@@H](C[C@H]1OCc1ccc(F)cc1)[C@]2(F)C(=O)O [Example 6, (1R,2R,3R,5R,6R)-2-Amino-6-fluoro-3-[(4-fluorophenyl)methoxy]-2-{[(L-valyloxy)methoxy]carbonyl}bicyclo[3.1.0]hexane-6-carboxylic acid dihydrochloride]
106%	101%	N[C@]1(C(=O)OCOC(=O)C23CC4CC(CC(C4)C2)C3)[C@H]2[C@@H](C[C@H]1OCc1ccc(F)cc1)[C@]2(F)C(=O)O [Example 7, (1R,2R,3R,5R,6R)-2-Amino-6-fluoro-3-[(4-fluorophenyl)methoxy]-2-({[(tricyclo[3.3.1.1^3,7]decane-1-carbonyl)oxy]methoxy}carbonyl)bicyclo[3.1.0]hexane-6-carboxylic acid]
	97%	CC(C)[C@@H]1CC[C@@H](C)C[C@H]1OC(=O)O[C@H](C)OC(=O)[C@@]1(N)[C@H]2[C@@H](C[C@H]1OCc1ccc(F)c(F)c1)[C@]2(F)C(=O)O [Example 8, (1R,2R,3R,5R,6R)-2-amino-3-[(3,4-difluorophenyl)methoxy]-6-fluoro-2-({(1R)-1-[({[(1R,2S,5R)-5-methyl-2-(propan-2-yl)cyclohexyl]oxy}carbonyl)oxy]ethoxy}carbonyl)bicyclo[3.1.0]hexane-6-carboxylic acid]
116%	115%	CC(C)[C@@H]1CC[C@@H](C)C[C@H]1OC(=O)O[C@@H](C)OC(=O)[C@@]1(N)[C@H]2[C@@H](C[C@H]1OCc1ccc(F)c(F)c1)[C@]2(F)C(=O)O [Example 9, (1R,2R,3R,5R,6R)-2-Amino-3-[(3,4-difluorophenyl)methoxy]-6-fluoro-2-({(1S)-1-[({[(1R,2S,5R)-5-methyl-2-(propan-2-yl)cyclohexyl]oxy}carbonyl)oxy]ethoxy}carbonyl)bicyclo[3.1.0]hexane-6-carboxylic acid]
107%	104%	C[C@H](OC(=O)C12CC3CC(CC(C3)C1)C2)OC(=O)[C@@]1(N)[C@H]2[C@@H](C[C@H]1OCc1ccc(F)c(F)c1)[C@]2(F)C(=O)O [Example 10, (1R,2R,3R,5R,6R)-2-Amino-3-[(3,4-difluorophenyl)methoxy]-6-fluoro-2-({(1R)-1-[(tricyclo[3.3.1.1^3,7]decane-1-carbonyl)oxy]ethoxy}carbonyl)bicyclo[3.1.0]hexane-6-carboxylic acid]
95%	96%	C[C@@H](OC(=O)C12CC3CC(CC(C3)C1)C2)OC(=O)[C@@]1(N)[C@H]2[C@@H](C[C@H]1OCc1ccc(F)c(F)c1)[C@]2(F)C(=O)O [Example 11, (1R,2R,3R,5R,6R)-2-Amino-3-[(3,4-difluorophenyl)methoxy]-6-fluoro-2-({(1S)-1-[(tricyclo[3.3.1.1^3,7]decane-1-carbonyl)oxy]ethoxy}carbonyl)bicyclo[3.1.0]hexane-6-carboxylic acid]
102%	101%	N[C@]1(C(=O)OCOC(=O)C23CC4CC(CC(C4)C2)C3)[C@H]2[C@@H](C[C@H]1OCc1ccc(F)c(F)c1)[C@]2(F)C(=O)O [Example 12, (1R,2R,3R,5R,6R)-2-Amino-3-[(3,4-difluorophenyl)methoxy]-6-fluoro-2-({[(tricyclo[3.3.1.1^3,7]decane-1-carbonyl)oxy]methoxy}carbonyl)bicyclo[3.1.0]hexane-6-carboxylic acid]
98%	98%	CCCO[C@@H]1C[C@@H]2[C@H]([C@]1(N)C(=O)O[C@@H](C)OC(=O)O[C@@H]1C[C@H](C)CC[C@H]1C(C)C)[C@@]2(F)C(=O)O [Example 13, (1R,2R,3R,5R,6R)-2-amino-6-fluoro-2-({(1R)-1-[({[(1R,2S,5R)-5-methyl-2-(propan-2-yl)cyclohexyl]oxy}carbonyl)oxy]ethoxy}carbonyl)-3-propoxybicyclo[3.1.0]hexane-6-carboxylic acid]
97%	97%	CCCO[C@@H]1C[C@@H]2[C@H]([C@]1(N)C(=O)O[C@H](C)OC(=O)O[C@@H]1C[C@H](C)CC[C@H]1C(C)C)[C@@]2(F)C(=O)O [Example 14, (1R,2R,3R,5R,6R)-2-Amino-6-fluoro-2-({(1S)-1-[({[(1R,2S,5R)-5-methyl-2-(propan-2-yl)cyclohexyl]oxy}carbonyl)oxy]ethoxy}carbonyl)-3-propoxybicyclo[3.1.0]hexane-6-carboxylic acid]
104%	104%	CCCO[C@@H]1C[C@@H]2[C@H]([C@]1(N)C(=O)OC(C)OC(=O)O[C@H]1C[C@@H](C)CC[C@@H]1C(C)C)[C@@]2(F)C(=O)O (stereo partly drawn) [Example 15-A, (1R,2R,3R,5R,6R)-2-Amino-6-fluoro-2-({1-[({[(1S,2R,5S)-5-methyl-2-(propan-2-yl)cyclohexyl]oxy}carbonyl)oxy]ethoxy}carbonyl)-3-propoxybicyclo[3.1.0]hexane-6-carboxylic acid]
93%	101%	CC(OC(=O)O[C@H]1C[C@@H](C)CC[C@@H]1C(C)C)OC(=O)[C@@]1(N)[C@H]2[C@@H](C[C@H]1OCc1ccc(F)cc1)[C@]2(F)C(=O)O (stereo partly drawn) [Example 16-B, (1R,2R,3R,5R,6R)-2-Amino-6-fluoro-3-[(4-fluorophenyl)methoxy]-2-({1-[({[(1S,2R,5S)-5-methyl-2-(propan-2-yl)cyclohexyl]oxy}carbonyl)oxy]ethoxy}carbonyl)bicyclo[3.1.0]hexane-6-carboxylic acid]
